Measured values taken from patent publication US5023236A, “Factor VII/VIIA active site inhibitors” (Corvas, Inc., priority 1989, dated 1991).
Non-standard residues stand in square brackets, D forms with d. Residues, ends and D or L forms follow the SMILES beside them. *: point of attachment. Dansyl = CN(C)c1cccc2c(S(=O)(=O)*)cccc12; Tos = Cc1ccc(S(=O)(=O)*)cc1; CH2Cl = ClC*

Tests used:
[1] = molecular target: T1, factor VII/VIIa in the binary complex with tissue factor (Homo sapiens, UniProt P08709); assay: linked enzyme chromogenic assay of factor X activation (S2222) with factor VII and TF positive J82 cells; format: biochemical; conditions: for Relative potency Ki 5 (MU): P3 side chain of peptide P3-Thr-Arg, one unit = inverse of the molar concentration at 5% inhibition of factor X activation; for Peptide (Ki 5): free peptide; for Peptide (Ki 5) / Peptidyl-CMK (Ki 5): inverse of molar concentration at 5% inhibition of factor X activation; for inhibitory activity (in words): peptides with R3 side chain on threonyl-arginine; for Ki 5: peptidyl chloromethyl ketones, Table 3; for Peptidyl-CMK (Ki 5): chloromethyl ketone analogue; for IC50: concentration required for 50% inhibition of the rate of factor X activation, column beside Peptidyl-CMK, read-out: Ki 50 (the source's name)
T1 construct: purified human factor VII (1 nM), purified as described by Fair, D; from tissue; TF endogenous on J82 cells (ATCC HTB1)
Protocol: Relative potency is expressed as megaunits (MU), where one unit is equal
to the inverse of the molar concentration at 5% inhibition of factor X
activation. Quantitation of inhibition of factor VII/VIIa in the binary
complex with tissue factor was performed in a linked enzyme chromogenic
assay using factor X, purified as described by Schwartz, B. S. et al.
(1981) J. Clin. Invest. 67:1650, and the chromogenic substrate S2222
(Helena Labs, Beaumont, Texa s). Briefly, the peptides were preincubated
with purified human factor VII (1 nM), purified as described by Fair, D.
incubation at room temperature 25 μl of 20 mM CaCl2, 1 ×
10^5 TF positive human bladder carcinoma derived J82 cells (available
from American Type Culture Collection, Rockville, Maryland, under
Accession No. ATCC HTB1), 25 μl of purified human factor human factor
(100 .eta.M) in 50 μl of TRIS buffered saline and 50 μl of 2 mM
S2222 was added. The use of J82 cells is an important feature of these in
vitro assays because they produce significant levels of TF for the
formation of active TF:VII/VIIa. The rate of conversion of factor X to Xa
was monitored kinetically by determination of the chromogenic product of
Inhibition by the compounds of this invention of the proteolytic activity of [TF:VII/VIIa] on factor X was analyzed by a chromogenic assay in which the substrate S-2222 is cleaved by the generated factor Xa. […] Analyses included the absence of effect of all such compounds on factor Xa, an enzyme closely homologous to factor VII and VIIa. […]

[2] = molecular target: T2, [TF:VII/VIIa] complex (Homo sapiens, UniProt P08709); assay: clotting inhibition of normal human plasma with J82 cells; format: biochemical
T2 construct: from tissue; host or cells: normal human plasma (factor VII); J82 cells (endogenous TF)
Protocol: Normal human plasma was diluted 1:3 by volume with 0.02 M Na Citrate, 0.14M NaCl pH 7.4 in a glass tube. Diluted plasma (100μl) was then mixed with 100μl of J82 cells at 1×10^6 cells/ml and 100 μl of inhibitor. Plasma clotting times were obtained by visual observation of initial turbidity following addition of 100 μl of 20 mM calcium chloride. Human plasma clotting times were also expressed as calculated milli-units of TF activity (assuming no inhibitor present).

T2 sequence (P08709 213-466 limits assumed): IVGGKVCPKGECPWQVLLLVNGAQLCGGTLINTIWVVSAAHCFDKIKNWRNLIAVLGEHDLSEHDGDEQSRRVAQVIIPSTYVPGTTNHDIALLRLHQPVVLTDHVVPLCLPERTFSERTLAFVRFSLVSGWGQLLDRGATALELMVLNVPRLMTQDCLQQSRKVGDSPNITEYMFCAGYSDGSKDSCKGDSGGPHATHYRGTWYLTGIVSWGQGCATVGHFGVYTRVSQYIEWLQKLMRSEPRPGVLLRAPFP
T2 sequence (P08709 61-212 partner limits assumed): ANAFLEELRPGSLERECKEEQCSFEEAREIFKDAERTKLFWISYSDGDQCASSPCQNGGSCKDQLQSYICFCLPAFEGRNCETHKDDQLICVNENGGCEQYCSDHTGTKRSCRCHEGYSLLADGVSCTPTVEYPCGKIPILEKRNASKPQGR
T2 sequence (P13726 33-295 partner): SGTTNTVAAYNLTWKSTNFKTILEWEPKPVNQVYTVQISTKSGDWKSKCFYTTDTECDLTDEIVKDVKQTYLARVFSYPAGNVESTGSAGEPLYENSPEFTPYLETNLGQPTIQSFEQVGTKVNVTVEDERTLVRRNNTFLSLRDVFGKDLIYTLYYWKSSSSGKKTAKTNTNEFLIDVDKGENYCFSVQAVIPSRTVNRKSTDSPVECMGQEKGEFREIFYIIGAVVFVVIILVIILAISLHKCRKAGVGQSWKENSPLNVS
T1 sequence (P08709 213-466 limits assumed): as the sequence (P08709 213-466 limits assumed) above
T1 sequence (P08709 61-212 partner limits assumed): as the sequence (P08709 61-212 partner limits assumed) above
T1 sequence (P13726 33-295 partner): as the sequence (P13726 33-295 partner) above

| inhibitory activity (in words) [1] | Ki 5 [1] [MU] | Structure (SMILES) | also measured |
| --- | --- | --- | --- |
| inactive |  | C[C@@H](O)[C@H](NC(=O)[C@@H](N)CCC(=O)O)C(=O)N[C@@H](CCCNC(=N)N)C(=O)O [glutamyl] (H-Glu-Thr-Arg-OH) |  |
|  | 60 | C[C@@H](O)[C@H](NC(=O)[C@@H](N)CC(=O)O)C(=O)N[C@@H](CCCNC(=N)N)C(=O)CCl [Example 9, H-L-Asp-L-Thr-L-Arg-CMK] (H-Asp-Thr-Arg-CH2Cl) |  |
| inactive |  | C[C@@H](O)[C@H](NC(=O)CN)C(=O)N[C@@H](CCCNC(=N)N)C(=O)O [glycyl] (H-Gly-Thr-Arg-OH) |  |
| inactive |  | CC(C)[C@H](N)C(=O)N[C@H](C(=O)N[C@@H](CCCNC(=N)N)C(=O)O)[C@@H](C)O [valyl] (H-Val-Thr-Arg-OH) |  |
| inactive |  | CSCC[C@H](N)C(=O)N[C@H](C(=O)N[C@@H](CCCNC(=N)N)C(=O)O)[C@@H](C)O [methionyl] (H-Met-Thr-Arg-OH) |  |
| inactive |  | CC[C@H](C)[C@H](N)C(=O)N[C@H](C(=O)N[C@@H](CCCNC(=N)N)C(=O)O)[C@@H](C)O [isoleucyl] (H-Ile-Thr-Arg-OH) |  |
| inactive |  | C[C@@H](O)[C@H](NC(=O)[C@@H](N)CO)C(=O)N[C@@H](CCCNC(=N)N)C(=O)O [seryl] (H-Ser-Thr-Arg-OH) |  |

Further lines, the compound ahead of its results:

| Structure (SMILES) | inhibitory activity (in words) [1] | Ki 5 [1] [MU] | also measured |
| --- | --- | --- | --- |
| CC(C)C[C@H](N)C(=O)N[C@H](C(=O)N[C@@H](CCCNC(=N)N)C(=O)O)[C@@H](C)O [Example 4, H-L-Leu-L-Thr-L-Arg] (H-Leu-Thr-Arg-OH) |  |  | Relative potency Ki 5 (MU) [1]: 4.5 MU; Peptide (Ki 5) [1]: 4.5 MU |
| C[C@@H](O)[C@H](N)C(=O)N[C@H](C(=O)N[C@@H](CCCNC(=N)N)C(=O)O)[C@@H](C)O [Example 5, H-L-Thr-L-Thr-L-Arg] (H-Thr-Thr-Arg-OH) |  |  | Relative potency Ki 5 (MU) [1]: 2.6 MU |
| C[C@@H](O)[C@H](NC(=O)[C@@H](N)Cc1ccccc1)C(=O)N[C@@H](CCCNC(=N)N)C(=O)O [phenylalanyl] (H-Phe-Thr-Arg-OH) | inactive |  |  |
| CC(C)C[C@H](NS(=O)(=O)c1cccc2c(N(C)C)cccc12)C(=O)N[C@H](C(=O)N[C@@H](CCCNC(=N)N)C(=O)CCl)[C@@H](C)O [Example 19, Dansyl-L-Leu-L-Thr-L-Arg-CMK] (Dansyl-Leu-Thr-Arg-CH2Cl) |  | 35 |  |
| C[C@@H](O)[C@H](NC(=O)[C@@H](N)Cc1c[nH]cn1)C(=O)N[C@@H](CCCNC(=N)N)C(=O)O [Example 3, H-L-His-L-Thr-L-Arg] (H-His-Thr-Arg-OH) |  |  | Relative potency Ki 5 (MU) [1]: 6.2 MU; Peptide (Ki 5) [1]: 6.2 MU |
| CC(C)C[C@H](N)C(=O)N[C@H](C(=O)N[C@@H](CCCNC(=N)N)C(=O)CCl)[C@@H](C)O [Example 11, H-L-Leu-L-Thr-L-Arg-CMK] (H-Leu-Thr-Arg-CH2Cl) |  | 68 | Peptidyl-CMK (Ki 5) [1]: 67.5 MU; IC50 [1]: 95 µM; inhibition at 3 µM ([2]; LTR-CMK final conc 3 μM): 5.3%; inhibition at 30 µM ([2]; LTR-CMK final conc 30 μM): 41%; inhibition at 300 µM ([2]; LTR-CMK final conc 300 μM): 75% |
| C[C@@H](O)[C@H](NC(=O)[C@H](N)Cc1ccccc1)C(=O)N[C@@H](CCCNC(=N)N)C(=O)CCl [Example 16, H-D-Phe-L-Thr-L-Arg-CMK] (H-[dF]-Thr-Arg-CH2Cl) |  | 42 |  |
| C[C@@H](O)[C@H](NC(=O)[C@@H](N)CC(N)=O)C(=O)N[C@@H](CCCNC(=N)N)C(=O)CCl [Example 8, H-L-Asn-L-Thr-L-Arg-CMK] (H-Asn-Thr-Arg-CH2Cl) |  | 44 |  |
| CC(C)C[C@H](N)C(=O)N1CCC[C@H]1C(=O)N[C@@H](CCCNC(=N)N)C(=O)CCl [Example 21, H-L-Leu-L-Pro-L-Arg-CMK] (H-Leu-Pro-Arg-CH2Cl) |  | 60 |  |
| CC(=O)N[C@@H](CC(C)C)C(=O)N[C@H](C(=O)N[C@@H](CCCNC(=N)N)C(=O)CCl)[C@@H](C)O [Example 17, Ac-L-Leu-L-Thr-L-Arg-CMK] (Ac-Leu-Thr-Arg-CH2Cl) |  | 60 |  |
| CC(C)C[C@H](N)C(=O)N[C@@H](CO)C(=O)N[C@@H](CCCNC(=N)N)C(=O)CCl [Example 20, H-L-Leu-L-Ser-L-Arg-CMK] (H-Leu-Ser-Arg-CH2Cl) |  | 60 |  |
| CC(C)C[C@@H](N)C(=O)N[C@H](C(=O)N[C@@H](CCCNC(=N)N)C(=O)CCl)[C@@H](C)O [Example 15, H-D-Leu-L-Thr-L-Arg-CMK] (H-[dL]-Thr-Arg-CH2Cl) |  | 100 |  |
| C[C@@H](O)[C@H](N)C(=O)N[C@@H](CCCNC(=N)N)C(=O)O [Example 7, H-L-Thr-L-Arg] (H-Thr-Arg-OH) | slight activity |  | Relative potency Ki 5 (MU) [1]: 2.0 MU |
| C[C@@H](O)[C@H](NC(=O)[C@@H](N)Cc1c[nH]c2ccccc12)C(=O)N[C@@H](CCCNC(=N)N)C(=O)O [tryptophanyl] (H-Trp-Thr-Arg-OH) | inactive |  |  |
| C[C@@H](O)[C@H](NC(=O)[C@@H](N)Cc1c[nH]cn1)C(=O)N[C@@H](CCCNC(=N)N)C(=O)CCl [Example 10, H-L-His-L-Thr-L-Arg-CMK] (H-His-Thr-Arg-CH2Cl) |  | 54 | Peptidyl-CMK (Ki 5) [1]: 54.0 MU; IC50 [1]: 120 µM |
| N=C(N)NCCC[C@H](NC(=O)[C@H](CO)NC(=O)[C@@H](N)CC(N)=O)C(=O)CCl [Example 22, H-L-Asn-L-Ser-L-Arg-CMK] (H-Asn-Ser-Arg-CH2Cl) |  | 60 |  |
| C[C@@H](O)[C@H](NC(=O)[C@@H](N)CC(N)=O)C(=O)N[C@@H](CCCNC(=N)N)C(=O)O [Example 1, H-L-Asn-L-Thr-L-Arg] (H-Asn-Thr-Arg-OH) |  |  | Relative potency Ki 5 (MU) [1]: 6.7 MU |
| C[C@@H](O)[C@H](NC(=O)[C@@H](N)Cc1ccc(O)cc1)C(=O)N[C@@H](CCCNC(=N)N)C(=O)O [tyrosyl] (H-Tyr-Thr-Arg-OH) | inactive |  |  |
| C[C@@H](O)[C@H](NC(=O)[C@@H](N)CCC(N)=O)C(=O)N[C@@H](CCCNC(=N)N)C(=O)O [Example 6, H-L-Gln-L-Thr-L-Arg] (H-Gln-Thr-Arg-OH) |  |  | Relative potency Ki 5 (MU) [1]: 2.5 MU |
| Cc1ccc(S(=O)(=O)N[C@@H](CC(C)C)C(=O)N[C@H](C(=O)N[C@@H](CCCNC(=N)N)C(=O)CCl)[C@@H](C)O)cc1 [Example 18, Tosyl-L-Leu-L-Thr-L-Arg-CMK] (Tos-Leu-Thr-Arg-CH2Cl) |  | 60 |  |
| C[C@@H](O)[C@H](NC(=O)[C@@H](N)CC(=O)O)C(=O)N[C@@H](CCCNC(=N)N)C(=O)O [Example 2, H-L-Asp-L-Thr-L-Arg] (H-Asp-Thr-Arg-OH) |  |  | Relative potency Ki 5 (MU) [1]: 4.8 MU |
| C[C@@H](O)[C@H](NC(=O)[C@@H]1CCCN1)C(=O)N[C@@H](CCCNC(=N)N)C(=O)O [prolyl] (H-Pro-Thr-Arg-OH) | inactive |  |  |
